Data as given in US10945978B2, “Treatment and diagnosis of melanoma” (The Rockefeller University, priority 2012, dated 2021).
Counter-ions that a name gives are not always drawn.

Columns and labels:
[1] = system: B16F10 parental and DTIC-resistant cells; assay: Tumor growth by DTIC-sensitive and DTIC-resistant B16F10 cells; assay type: in vivo, mouse; conditions: chow supplemented with GW3965 100 mg/kg
Procedure: First, the cells were treated with 500 μg/mL DTIC for one week. Following this initial DTIC treatment, the remaining (˜10%) viable cells were allowed to recover for one week, after which 750 rag/mL of DTIC was added to the cell media for 5 days. Subsequent to this high-dose treatment, the cells were allowed to recover in the presence of low-dose DTIC (100 jag/mL) for one week. The cells were then continuously cultured in cell media containing 200 rag/mL DTIC for at least one month prior to grafting the cells into mice. DTIC was added to fresh cancer cell media every 3 days.

[2] = system: MeWo human melanoma cells; assay: Tumor histochemistry (MECA-32, Ki-67, cleaved caspase-3) of MeWo tumors; assay type: in vivo; conditions: GW3965 diet 20 mg/kg, 35 days
Description: Animals were intracardially perfused with PBS followed by 4% paraformaldehyde (PFA). Fixed lungs were embedded in paraffin and sectioned into 5-jam-thick increments. Macroscopic lung metastatic nodules were visualized by H&E staining. For analysis of tumor endothelial cell content, proliferation, and apoptosis, primary tumor paraffin-embedded sections were stained with antibodies against MECA-32 (Developmental Studies Hybridoma Bank, University of Iowa), KI-67 (ab15580, Abcam), and cleaved caspase-3 (9661, Cell Signaling), respectively.
Tumors were excised from mice and fixed in 4% paraformaldehyde at 4° C. for 48 hours. Then, tumors were paraffin-embedded and sectioned into 5-μm-thick increments. For endothelial cell content analysis in tumors, tumor sections were stained with a primary antibody against the mouse endothelial cell marker MECA-32 (Developmental Studies Hybridoma Bank, The University of Iowa, IA) and counterstained with DAPI nuclear stain. To determine tumor cell proliferation and apoptosis, tumor sections were stained with antibodies against the proliferative marker Ki-67 (Abcam, ab15580, Cambridge, Mass.) and the apoptotic marker cleaved caspase-3 (9661, Cell Signaling, Danvers, Mass.), respectively. Various Alexa Flour dye-conjugated secondary antibodies were used to detect primary antibodies. […] Endothelial cell content density and tumor proliferation rate were quantified by calculating the average percentage of MECA-32 or Ki-67 positively-staining area out of the total tumor area. Tumor apoptosis was measured by counting the number of cleaved caspase-3 expressing cells per given tumor area.

DNAJA4 = DNAJA4 expression by qRT-PCR in parental MeWo cells; assay type: cell-based, human; conditions: GW3965 48 hours
Procedure: Total RNA was extracted from various cell lines using the miRvana kit (AM1560, Applied Biosystems, Austin, Tex.). The expression levels of mature miRNAs were quantified using the Taqman miRNA expression assay (4427975-0002228, Applied Biosystems). RNU44 was used as an endogenous control for normalization. For mRNA expression analyses, 600 ng of total RNA was reverse transcribed using the cDNA First-Strand Synthesis Kit (18080-051, Invitrogen), and roughly 200 ng of the resulting cDNA was then mixed with SYBR green PCR Master Mix (4309155, Applied Biosystems) and the appropriate primers. Each reaction was performed in quadruplicate, and mRNA expression was quantified by performing real-time PCR amplification using an ABI Prism 7900HT Real-Time PCR System (Applied Biosystems). GAPDH was used as an endogenous control for normalization. The following primers were used: […]

[3] = system: B-Raf^V600E/+; Pten^−/−; CDKN2A^−/− primary mouse melanoma cells; assay: B-RafV600E/+; Pten−/−; CDKN2A−/− melanoma cells in syngeneic C57BL/6 mice; assay type: in vivo; conditions: GW3965 diet 100 mg/kg
Procedure: Melanoma cells used for in vivo metastasis assays were transduced with a stably expressed retroviral construct encoding a luciferase reporter gene (Ponomarev et al., 2004), allowing us to monitor the in vivo progression of melanoma cells by bioluminescence imaging. The following numbers of melanoma cells, resuspended in 100 μL of PBS, were injected intravenously via the tail-vein: 4×10^4 MeWo cells, 2.5×10^5 HT-144 cells, 2×10^5 SK-Mel-334.2 cells, 5×10^4B16F10 cells, and 1×10^5 YUMM cells. The MeWo, HT-144, and SK-Mel-334.2 cells were injected into 6-8 week-old sex-matched NOD scid mice, while the B16F10 and YUMM cells were injected into 6-8 week-old sex-matched C57BL/6 mice. […] To assess the effect of GW3965 treatment on brain metastasis, 1×10^5 MeWo brain-metastatic derivatives were injected intracardially into athymic nude mice. Immediately following injection, mice were randomly assigned to a control diet or GW3965-supplemented diet (100 mg/kg). To determine whether oral delivery of GW3965 can inhibit the progression of incipient metastasis, NOD Scid mice were intravenously injected with 4×10^4 MeWo cells and the cells were allowed to colonize the lungs for 42 days, after which mice were blindedly assigned to a control diet or a GW3965-supplemented diet (100 mg/kg) treatment.

HUVEC's = assay: Endothelial migration and chemotaxis assays (cancer cell-free); parameters: species or system human; conditions: trans-well assay and gradient-based chemotactic assay
Procedure: Serum-starved HUVEC's were pulsed with Cell Tracker Red CMTPX dye for 45 minutes and seeded into HTS Fluoroblock trans-well inserts at a concentration of 1×10^5 HUVEC's in 0.5 mL starvation media per each insert. The assay was allowed to proceed for 16-18 hours at 37° C., and the inserts were processed and analyzed as described above (See Matrigel Invasion Assay).
HUVEC's were serum-starved in 0.2% FBS EGM-2 media for 16 hours and labeled with Cell Tracker Red CMTPX dye for 45 minutes. Meanwhile, the indicated amounts (1-5 jag) of recombinant human ApoE3 or BSA were mixed with 250 μL of matrigel (356231, BD Biosciences) and allowed to solidify at the bottom of a 24-well plate for 30 min. 250 μL of HUVEC EGM-2 media containing 0.2% FBS was then added to each matrigel-coated well, and […] HTS Fluoroblock inserts were fitted into each well. 1×10^5 HUVEC's, resuspended in 0.5 mL of starvation media, were seeded into each insert and allowed to migrate along the matrigel gradient for 16-18 hours at 37° C. Upon completion of the assay, the inserts were mounted on slides and analyzed as described above (See Matrigel Invasion Assay).

Compound	suppression of tumor growth by the DTIC-resistant B16F10 clone [1]	decrease in the number of actively proliferating tumor cells ([2]; Ki-67)	reduction in the endothelial cell content of tumors ([2]; MECA-32)	number of apoptotic cells ([2]; cleaved caspase-3)	expression of DNAJA4 (DNAJA4)	overall survival [3]	tumor growth and lung metastasis [3]	endothelial migration (HUVEC's)
O=C(O)Cc1cccc(OCCCN(Cc2cccc(C(F)(F)F)c2Cl)CC(c2ccccc2)c2ccccc2)c1 [GW3965 2, 3-[3-[N-(2-Chloro-3-trifluoromethylbenzyl)-(2,2-diphenylethyl)amino]propyloxy] phenylacetic acid hydrochloride]	more than 70%	23%	roughly 2 fold	without a change	increased	extended	robustly inhibited	–
recombinant human ApoE: recombinant human ApoE3 (4696, BioVision)	–	–	–	–	–	–	–	sufficient to inhibit
